Data published in patent publication US20250340543A1, “GPR84 ANTAGONISTS AND USES THEREOF” (Liminal BioSciences Limited, priority 2021, published 2025).

Molecular target: GPR84 (Homo sapiens (Human), UniProt Q9NQS5)
Assay: Gai biosensor BRET assay (GPR84-mediated activation of Gai, antagonist mode against agonist ZQ-16)
Type: cell-based
Conditions: HEK293 cells, 200 nmol/L GPR84 agonist ZQ-16, read-out: hGPR84 IC50
Text: Background—The following assays can be used for determination of GPR84 activation in living HEK293 cells. […] The Gai biosensor consists of a Rluc8-tagged Gαi2 subunit, a GFP10-tagged Gγ2 subunit, and an untagged Gβ1. […] Moreover, signaling functions of GPCRs are tightly regulated by endocytosis, the targeting of receptors to endosomes and their sorting to lysosomes or recycling to the plasma membrane. […] Agonist stimulation of GPR84—Rluc8 leads to trafficking of the receptor to EEs, and ensuing increase of the donor concentration relative to the rGFP-FYVE acceptor anchored in the same cellular compartment, and thus results in an increase in BRET signal.
Plasmids—The cDNA clones for human GPR84 receptor, human Gαi2, Gβ1, and Gγ2 were obtained from the cDNA Resource Center (www.cdna.org). GFP10 (F64L, S147P, S202F and H231L variant of Aequorea victoria Green Fluorescent Protein) gBlocks gene fragments (Integrated DNA Technologies, IA) and linker were inserted in frame at the N-terminus of human Gγ2. Rluc8 (A55T, C124A, S130A, K136R, A143M, M185V, M253L, and S287L variant of the Renilla renformis luciferase) gBlocks gene fragment was inserted with linkers in frame in between residues 91 and 92 of Gαi2 or at the C-terminus of GPR84. The FYVE domain from human endofin (residues Q739 to K806) attached in frame at the C terminus of a humanized Renilla GFP (rGFP), were synthesized as gBlocks gene fragments.
Bioluminescence Resonance Energy Transfer (BRET) Measurement—HEK293 cells were transfected with GPR84—Rluc8 and rGFP-FYVE for the EEs trafficking biosensor or with GPR84, Gαi2—Rluc8, GFP10-Gγ2, and Gβ1 for the Gai biosensor. The following day, transiently transfected cells were seeded in 96-well white clear bottom microplates coated with poly-D-lysine and left in culture for 24 hours. Cells were washed once with Tyrode's buffer (140 mmol/L NaCl, 1 mmol/L CaCl2, 2.7 mmol/L KCl, 0.49 mmol/L MgCl2, 0.37 mmol/L NaH2PO4, 5.6 mmol/L glucose, 12 mmol/L NaHCO3, and 25 mmol/L HEPES, pH 7.5) before performing assays in Tyrode's buffer. Test compounds were incubated with cells for 5 (Gai) or 15 (EEs) minutes at 37° C. before addition of 200 nmol/L of the GPR84 agonist ZQ-16 (2-(Hexylthio)-6-hydroxy-4(3H)-pyrimidinone) for 5 minutes at room temperature (Gai) or 30 minutes at 37° C. (EEs). The Rluc8 substrate coelenterazine 400A (Prolume, Lakeside, AZ) was added at a final concentration of […] and BRET readings were collected using an Infinite M1000 microplate reader (Tecan, Morrisville, NC). BRET^2 readings between Rluc8 and GFP10 or rGFP were collected by sequential integration of the signals detected in the 370 to 450 nm (Rluc8) and 510 to 540 nm (GFP10, rGFP) windows. The BRET signal was calculated as the ratio of light emitted by acceptor (GFP10, rGFP) over the light emitted by donor (Rluc8). The values were corrected to net BRET by subtracting the background BRET signal obtained in cells transfected with Rluc8 constructs alone. Ligand-promoted net BRET values were calculated by subtracting vehicle-induced net BRET from ligand-induced net BRET.

GPR84, sequence (Q9NQS5 whole entry): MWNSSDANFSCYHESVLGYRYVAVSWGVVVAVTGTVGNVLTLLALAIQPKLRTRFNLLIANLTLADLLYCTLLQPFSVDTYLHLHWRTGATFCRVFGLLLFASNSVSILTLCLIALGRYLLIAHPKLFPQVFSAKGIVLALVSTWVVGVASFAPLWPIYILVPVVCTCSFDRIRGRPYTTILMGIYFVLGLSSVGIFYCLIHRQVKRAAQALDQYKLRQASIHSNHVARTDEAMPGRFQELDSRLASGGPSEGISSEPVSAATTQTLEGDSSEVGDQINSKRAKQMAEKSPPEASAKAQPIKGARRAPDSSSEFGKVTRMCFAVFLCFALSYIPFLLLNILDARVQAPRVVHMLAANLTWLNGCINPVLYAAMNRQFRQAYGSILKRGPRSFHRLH

Row | Structure (SMILES) | IC50
1 | O=C(CC1CCOCC1)N1Cc2ccc(C#CC3CC3)cc2C1 [Compound I-180] | > 25 µM
2 | O=c1nc(OCC2COCCO2)cc2n1CCOc1cc(C#CC3CC3)ccc1-2 (centres unmarked) [Compound I-214] | < 5 µM
3 | C(#CC1CC1)c1ccc(-c2cncc(OCC3CCCCO3)c2)cc1 (centres unmarked) [Compound I-25] | 5 to 10 µM

Now from value to compound:

Row | IC50 | Structure (SMILES)
4 | < 5 µM | COc1cc(OCC2COCCO2)cc(-c2ccc(-c3ccc(C)nc3)cc2C)n1 (centres unmarked) [Compound I-36]
5 | < 5 µM | Cc1cc(OCc2ncccc2Cl)cc(=O)n1[C@H](C)c1ccc(C#CC2CC2)cc1 [Compound I-256]
6 | < 5 µM | Cc1cc(OC[C@H]2COCCO2)cc(=O)n1[C@H](C)c1ccc(C#CC2CC2)cc1 (stereo in doubt) [Compound I-7]

Same assay, conditions: compound tested at 1 μM (concentration code A*)

Row | inhibition at 1 µM | Structure (SMILES)
7 | < 25% | O=C(NCC1CCCO1)N1Cc2ccc(C#CC3CC3)cc2C1 (centres unmarked) [Compound I-184]
8 | < 25% | O=C(NCC1CCCO1)N1CCc2cc(C#CC3CC3)ccc2C1 (centres unmarked) [Compound I-183]

Same assay, conditions: compound tested at 2 μM (concentration code A)

Row | inhibition at 2 µM | Structure (SMILES)
9 | < 25% | Cc1cc(OCc2ncccn2)cc(=O)n1[C@H](C)c1cccc(C#CC2CC2)c1 [Compound I-252]
10 | > 75% | Cc1cc(OCc2ncccc2Cl)cc(=O)n1[C@H](C)c1ccc(C#CC2CC2)cc1 [Compound I-256]

Same assay, conditions: compound tested at 10 μM (concentration code D)

Row | Structure (SMILES) | inhibition at 10 µM
11 | Cc1cc(OCc2ncccn2)cc(=O)n1[C@H](C)c1ccccc1 [Compound I-300] | < 25%
12 | CCCOc1ccc(C(C)n2c(C)cc(OCc3ncccn3)cc2=O)cc1 (centres unmarked) [Compound I-343] | < 25%
13 | O=C(CC1CCOc2ccccc21)N1Cc2ccc(C#CC3CC3)cc2C1 (centres unmarked) [Compound I-217] | < 25%
14 | Cc1cc(OCc2ncccn2)cc(=O)n1C(C)c1ccc(C#CCNc2ccccc2)cc1 (centres unmarked) [Compound I-312] | < 25%
15 | Cc1cc(OCc2ncccn2)cc(=O)n1C(C)c1ccc(C#CC2CCC2)c(F)c1 (centres unmarked) [Compound I-366] | > 75%
16 | Cc1cc(OCC2COCCO2)cc(=O)n1Cc1cccc(C#CCNc2ccccc2)c1 (centres unmarked) [Compound I-14] | < 25%
17 | Cc1cc(OCC2COCCO2)cc(=O)n1C(C)c1ccc(C#CC(C)(C)C)cc1 (centres unmarked) [Compound I-68] | < 25%
18 | Cc1cc(OCc2ncccn2)cc(=O)n1C(C)c1cnc(C#CC2CC2)nc1 (centres unmarked) [Compound I-340] | < 25%
19 | CC1(C)CN(c2cccc(Cn3ccc(OCC4COCCO4)cc3=O)c2)C1 (centres unmarked) [Compound I-228] | < 25%
20 | Cc1cc(OCc2ncccn2)cc(=O)n1C(C)c1ccc(C#CC2CC2)cn1 (centres unmarked) [Compound I-253] | 50 to 75%
21 | Cc1cc(OCc2ncccn2)cc(=O)n1C(C)c1ccc(C#CC2CC2)nc1 (centres unmarked) [Compound I-287] | 25 to 50%
22 | Cc1cc(OCc2ncccn2)cc(=O)n1Cc1cc(C#CC2CC2)ccn1 [Compound I-266] | < 25%
23 | Cc1cc(OCc2ncccn2)cc(=O)n1[C@H](C)c1ccc(N2CC(C)(C)C2)cc1 [Compound I-235] | < 25%
24 | Cc1cc(OCC2CCCCO2)cc(=O)n1C(C)c1ccc(OCC(F)(F)F)cc1 (centres unmarked) [Compound I-274] | < 25%
25 | Cc1cc(OCc2ncccn2)cc(=O)n1[C@H](C)Cc1cccc(C#CC2CC2)c1 (stereo in doubt) [Compound I-281] | < 25%

The next lines start with the values.

Row | inhibition at 10 µM | Structure (SMILES)
26 | < 25% | Cc1cc(OC[C@@H]2COCCO2)cc(=O)n1Cc1cc(C#CC2CC2)ccn1 [Compound I-231]
27 | > 75% | Cc1cc(OCn2ccnc2)cc(=O)n1[C@H](C)c1ccc(C#CC2CC2)cc1 [Compound I-308]
28 | > 75% | CC[C@H](c1ccc(C#CC2CC2)cc1)n1c(C)cc(OCc2ncccn2)cc1=O [Compound I-317]
29 | 25 to 50% | Cc1cc(C#CC2CC2)ccc1-c1cncc(OCC2COCCO2)c1 (centres unmarked) [Compound I-43]
30 | 50 to 75% | Cc1cc(OCC2OCC(C)(C)CO2)cc(=O)n1[C@H](C)c1ccc(C#CC2CC2)cc1 [Compound I-227]
31 | < 25% | Cc1cc(OCC2COCCO2)cc(=O)n1C(C)c1ccc(OCC(F)(F)F)cc1 (centres unmarked) [Compound I-99]
32 | < 25% | Cc1cc(OCc2ccccc2Cl)cc(=O)n1[C@H](C)c1ccc(C#CC2CC2)cc1 [Compound I-297]
33 | < 25% | CC(c1cc(C#CC2CC2)ccn1)n1ccc(OC[C@@H]2COCCO2)cc1=O (some centres unmarked) [Compound I-286]
34 | > 75% | CC(c1ccc(C#CC2CC2)cc1)n1c(Cl)cc(OCc2ncccn2)cc1=O (centres unmarked) [Compound I-321]
35 | > 75% | Cc1cc(OCn2cccn2)cc(=O)n1[C@H](C)c1ccc(C#CC2CC2)cc1 [Compound I-295]
36 | < 25% | Cc1cc(OCC2COCCO2)cc(=O)n1[C@H](C)c1ccc(N2CC(C)(CO)C2)cc1 (some centres unmarked) [Compound I-224]
37 | < 25% | COc1ccc([C@@H](C)n2c(C)cc(OCc3ncccn3)cc2=O)cc1 [Compound I-301]
38 | > 75% | Cc1cc(OC[C@H]2COCCO2)cc(=O)n1[C@H](C)c1ccc(C#CC2CC2)cc1 (stereo in doubt) [Compound I-7]
39 | < 25% | Cc1cc(OCc2ncccn2)cc(=O)n1[C@H](C)c1ccc(C2CC2)cc1 [Compound I-322]
40 | < 25% | Cc1cc(OCc2ccccn2)ccc1-c1cc(OCC2COCCO2)n(C)c(=O)c1 (centres unmarked) [Compound I-121]
41 | < 25% | Cc1cc(C#CC2CC2)cnc1C(C)n1ccc(OCc2ncccn2)cc1=O (centres unmarked) [Compound I-254]
42 | < 25% | Cc1cc(C#CC2CC2)cnc1C(C)n1ccc(OC[C@@H]2COCCO2)cc1=O (some centres unmarked) [Compound I-285]
43 | < 25% | Cc1cc(OCC2COCCO2)cc(=O)n1Cc1ccc(C#CCNCc2ccccc2)cc1 (centres unmarked) [Compound I-123]

Same assay, conditions: compound tested at 12.5 μM (concentration code E)

Row | inhibition at 12.5 µM | Structure (SMILES)
44 | < 25% | Cc1ccc(-c2ccc(-c3cc(OCC4CCCCO4)ncn3)cc2)cn1 (centres unmarked) [Compound I-124]
45 | 50 to 75% | C(#CC1CC1)c1ccc(-c2cncc(OCC3CCCCO3)c2)cc1 (centres unmarked) [Compound I-25]

Same assay, conditions: compound tested at 15 μM (concentration code F)

Row | inhibition at 15 µM | Structure (SMILES)
46 | < 25% | FC(F)(F)COc1ccc(-c2cc(OCC3COCCO3)cc(C3CO3)c2)cc1 (centres unmarked) [Compound I-164]

Same assay, conditions: compound tested at 25 μM (concentration code G)

Row | Structure (SMILES) | inhibition at 25 µM
47 | Cn1c(-c2ccc(C#CC3CC3)cc2)nc(OCC2COCCO2)cc1=O (centres unmarked) [Compound I-27] | 25 to 50%
48 | O=c1oc2ccc(-c3ccc(C#CC4CC4)cc3)cc2n1CC1CCCCO1 (centres unmarked) [Compound I-167] | < 25%
49 | COc1cc(OCC2COCCO2)nc(-c2ccc(OCc3ccccn3)cc2C)n1 (centres unmarked) [Compound I-134] | < 25%
50 | O=C(CC1CCOCC1)N1Cc2ccc(C#CC3CC3)cc2C1 [Compound I-180] | 50 to 75%
51 | O=c1nc(OCC2COCCO2)ccn1Cc1cc(OCC(F)(F)F)ccc1Br (centres unmarked) [Compound I-77] | < 25%
52 | COc1cc(NC(=O)C2CCCCO2)cc(-c2ccc(C#CC3CC3)cc2)n1 (centres unmarked) [Compound I-75] | < 25%
53 | COc1cc(OCC2COCCO2)cc(-c2ccc(OCC(F)(F)F)cc2)c1C (centres unmarked) [Compound I-157] | < 25%
54 | Cc1ccc(N2CCN(c3cc(OCC4COCCO4)nc(=O)n3C)CC2)cn1 (centres unmarked) [Compound I-86] | < 25%
55 | Cc1cc(OCc2ccccn2)ccc1-c1cc(OCC2COCCO2)cc(=O)[nH]1 (centres unmarked) [Compound I-71] | < 25%
56 | COc1nc(OCC2COCCO2)cc(-c2ccc(OCC(F)(F)F)cn2)n1 (centres unmarked) [Compound I-41] | < 25%
57 | O=c1nc(OCC2COCCO2)cc2n1CCOc1cc(C#CC3CC3)ccc1-2 (centres unmarked) [Compound I-214] | > 75%
58 | Cc1ccc(-c2ccc(Cn3c(C)cc(OCC4COCCO4)cc3=O)cc2)cn1 (centres unmarked) [Compound I-91] | < 25%

Second part, the compound after the results:

Row | inhibition at 25 µM | Structure (SMILES)
59 | 25 to 50% | COc1cc(OC[C@H]2COCCO2)nc(-c2ccc(OCC(F)(F)F)cc2)c1C [Compound I-39]
60 | < 25% | FC(F)(F)COc1ccc(-c2nc(OCC3COCCO3)cc3c2OCCO3)cc1 (centres unmarked) [Compound I-158]
61 | 25 to 50% | COc1cc(OCC2COCCO2)cc(-c2ccc(-c3ccc(C)nc3)cc2C)n1 (centres unmarked) [Compound I-36]
62 | < 25% | COc1cc(OCC2COCCO2)nc(-c2ccc(OCC(F)(F)F)cc2C)c1C (centres unmarked) [Compound I-112]
63 | < 25% | Cn1c(OCC2COCCO2)cc(-c2ccc(C#CC3CC3)cc2)nc1=O (centres unmarked) [Compound I-136]
64 | < 25% | COc1cnc(OCC2COCCO2)c(-c2ccc(OCC(F)(F)F)cc2)c1OC (centres unmarked) [Compound I-131]
65 | < 25% | COc1c(C)cc(OCC2COCCO2)nc1-c1ccc(OCC(F)(F)F)cc1 (centres unmarked) [Compound I-78]
